Measured values: patent US20190274334A1 (MARS, INCORPORATED, priority 2016, published 2019)
“And” between values parts separate entries of the source, which are not always exact repeats. Equal values may be shown once. Read-outs that look alike come from different tables or passages of the source.

Experiments:
Human CaSR = biological target: T1, Human CaSR (Homo sapiens, UniProt P41180); settings: Yes/No; cited from earlier work
T1 sequence (P41180 20-1078): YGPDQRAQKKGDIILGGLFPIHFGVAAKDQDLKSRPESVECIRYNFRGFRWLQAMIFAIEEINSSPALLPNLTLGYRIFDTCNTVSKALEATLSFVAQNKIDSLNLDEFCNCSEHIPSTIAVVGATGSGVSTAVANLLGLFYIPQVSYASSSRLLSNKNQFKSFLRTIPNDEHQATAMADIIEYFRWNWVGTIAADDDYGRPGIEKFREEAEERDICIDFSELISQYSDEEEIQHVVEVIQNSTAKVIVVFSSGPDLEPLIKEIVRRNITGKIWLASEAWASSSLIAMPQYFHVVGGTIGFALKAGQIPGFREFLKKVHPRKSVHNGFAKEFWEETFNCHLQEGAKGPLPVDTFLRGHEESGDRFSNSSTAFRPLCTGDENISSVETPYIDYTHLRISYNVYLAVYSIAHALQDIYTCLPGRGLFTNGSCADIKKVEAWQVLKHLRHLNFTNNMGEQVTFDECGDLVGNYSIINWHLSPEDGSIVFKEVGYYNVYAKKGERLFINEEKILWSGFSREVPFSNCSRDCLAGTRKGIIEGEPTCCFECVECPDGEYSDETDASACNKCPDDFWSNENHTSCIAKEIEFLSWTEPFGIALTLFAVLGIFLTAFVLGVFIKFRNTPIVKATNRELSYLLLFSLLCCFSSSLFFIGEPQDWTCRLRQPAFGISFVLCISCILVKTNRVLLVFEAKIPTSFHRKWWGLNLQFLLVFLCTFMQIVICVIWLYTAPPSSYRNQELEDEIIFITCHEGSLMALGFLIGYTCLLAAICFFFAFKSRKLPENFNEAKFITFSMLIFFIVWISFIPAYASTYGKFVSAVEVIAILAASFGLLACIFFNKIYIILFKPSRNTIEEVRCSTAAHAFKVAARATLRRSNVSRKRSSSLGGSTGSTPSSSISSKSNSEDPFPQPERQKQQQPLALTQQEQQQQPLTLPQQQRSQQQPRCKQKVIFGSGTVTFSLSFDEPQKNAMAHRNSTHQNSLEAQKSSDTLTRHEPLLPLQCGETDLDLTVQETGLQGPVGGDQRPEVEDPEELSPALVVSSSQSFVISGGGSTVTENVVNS

feline CaSR (f:CaSR) [1] = biological target: T2, feline CaSR (f:CaSR) (Felis catus, UniProt A0ABI7YY68); assay: cell-based; format: cell-based
T2 sequence (A0ABI7YY68 entry or part of it): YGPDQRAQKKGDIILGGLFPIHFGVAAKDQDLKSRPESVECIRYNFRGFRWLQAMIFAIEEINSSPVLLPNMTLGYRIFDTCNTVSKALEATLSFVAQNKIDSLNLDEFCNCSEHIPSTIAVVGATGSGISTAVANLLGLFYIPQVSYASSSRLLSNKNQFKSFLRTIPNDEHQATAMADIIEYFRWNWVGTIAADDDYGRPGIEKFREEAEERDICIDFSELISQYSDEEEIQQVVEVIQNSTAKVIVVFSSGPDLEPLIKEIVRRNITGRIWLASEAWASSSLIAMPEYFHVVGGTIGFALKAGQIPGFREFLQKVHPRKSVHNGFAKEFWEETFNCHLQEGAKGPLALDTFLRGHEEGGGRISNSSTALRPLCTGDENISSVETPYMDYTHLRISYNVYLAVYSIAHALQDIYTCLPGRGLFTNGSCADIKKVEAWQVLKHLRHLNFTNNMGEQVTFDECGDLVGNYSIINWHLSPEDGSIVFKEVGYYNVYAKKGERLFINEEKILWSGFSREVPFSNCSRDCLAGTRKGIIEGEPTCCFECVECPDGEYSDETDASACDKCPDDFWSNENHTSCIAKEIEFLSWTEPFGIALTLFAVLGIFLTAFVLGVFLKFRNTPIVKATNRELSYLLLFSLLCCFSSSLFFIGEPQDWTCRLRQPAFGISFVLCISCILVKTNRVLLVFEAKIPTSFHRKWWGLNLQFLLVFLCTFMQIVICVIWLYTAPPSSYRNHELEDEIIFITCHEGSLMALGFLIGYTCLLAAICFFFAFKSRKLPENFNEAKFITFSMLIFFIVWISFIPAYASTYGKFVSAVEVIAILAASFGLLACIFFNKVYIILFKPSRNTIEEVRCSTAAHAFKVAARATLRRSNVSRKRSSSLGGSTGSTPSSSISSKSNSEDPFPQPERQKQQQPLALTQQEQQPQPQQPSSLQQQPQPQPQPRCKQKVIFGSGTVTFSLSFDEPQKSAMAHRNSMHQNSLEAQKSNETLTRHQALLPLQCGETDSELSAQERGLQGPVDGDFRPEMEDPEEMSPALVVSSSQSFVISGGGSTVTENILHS
feline CaSR (f:CaSR) [2] = biological target: T2, feline CaSR (f:CaSR); assay: in vitro PAM testing of amino acids on feline CaSR, single-injection protocol, shift of calcium EC50; format: cell-based; settings: for EC50: CaCl2 alone, control of the same experiment, read-out: EC50 of Ca^2+ before the shift (without amino acid)
Procedure: Methods: HEK293TRex/nat-Clytin cells that inducibly express a feline CaSR (f:CaSR) transgene construct was used to screen 30 amino acids to identify compounds that modulate f:CaSR activity. […] The HEK293 cells were seeded at 10,000 cells/well in 384 MTP. 24 hours after cell seeding, cells were loaded with 10 μm coelenterazine in an assay buffer (20 μL/well) for 4 h at room temperature. […] CaCl2 alone was used as a control.
PAM mode (single-injection): Test compound (6× concentrated) and CaCl2 (6× concentrated) were directly mixed 1:1 on the compound plate to get a 3× concentrated working solution of each test compound and control. 10 μl/well of the test compound or control working mixture was injected, and luminescence (i.e., PAM activity) was measured.

[3] = tested on: feline umami (T1R1/T1R3) receptor; settings: cited from earlier work
[4] = agonist mode, read-out: EC50 (Agonist)
[5] = double-injection protocol, agonist mode and PAM mode
[6] = PAM mode, CaCl2 injected at EC20, read-out: EC50 (PAM)

NCCCCN [Putrescine]
Human CaSR agonist (Human CaSR): Yes | Feline CaSR agonist (feline CaSR (f:CaSR) [1]): No

N=C(N)NCCC[C@H](N)C(=O)O [L-Arginine]
Activity Type (feline CaSR (f:CaSR) [2]): PAM EC50 of Ca^2+ moved from 1.5 mM to 0.72 mM in presence of 10 mM L-Arginine

N[C@@H](Cc1ccccc1)C(=O)O [L-Phenylalanine]
Activity Type (feline CaSR (f:CaSR) [2]; single-injection PAM mode): PAMs and PAM | Comments: Umami-active for cats [3]: umami-active | Feline CaSR agonist (feline CaSR (f:CaSR) [1]; Yes/No): do not activate

C[C@H](N)C(=O)O [L-alanine]
Comments: Umami-active for cats [3]: Umami-active | Human CaSR agonist (Human CaSR): Yes | Feline CaSR agonist (feline CaSR (f:CaSR) [1]; Yes/No): do not activate and No

N[C@@H](Cc1c[nH]c2ccccc12)C(=O)O [L-Tryptophan]
Activity Type (feline CaSR (f:CaSR) [2]; single-injection PAM mode): PAMs and PAM | Comments: Umami-active for cats [3]: umami-active | Feline CaSR agonist (feline CaSR (f:CaSR) [1]; Yes/No): do not activate

[Ca] [Calcium]
EC50 (feline CaSR (f:CaSR) [2]; listed as Ca2^+): 1.3 mM | EC50 (feline CaSR (f:CaSR) [2]; listed as Ca^2+): 1.3 mM and 1.5 mM | EC50 (feline CaSR (f:CaSR) [1]; [4]): 1620 µM | Activity Type (feline CaSR (f:CaSR) [1]; [5]): Agonist

CSC[C@H](NC(=O)CC[C@H](N)C(=O)O)C(=O)NCC(=O)O [S-Methylglutathione]
Activity Type (feline CaSR (f:CaSR) [1]; [5]): Agonist

N[C@@H](Cc1c[nH]cn1)C(=O)O [L-histidine]
Comments: Umami-active for cats [3]: Umami-active | Human CaSR agonist (Human CaSR): Yes | Feline CaSR agonist (feline CaSR (f:CaSR) [1]; Yes/No): do not activate and No

N[C@@H](CCC(=O)N[C@@H](CCC(=O)O)C(=O)O)C(=O)O [H-Glu(Glu-OH)—OH]
Activity Type (feline CaSR (f:CaSR) [1]; [5]): Agonist

N[C@@H](CCC(=O)N[C@@H](CCC(=O)N[C@@H](CCC(=O)O)C(=O)O)C(=O)O)C(=O)O [H-Glu(Glu(Glu-OH)—OH)—OH]
Activity Type (feline CaSR (f:CaSR) [1]): Agonist EC50 2.35 mM | EC50 (feline CaSR (f:CaSR) [1]; [4]): 2350 µM

N[C@@H](CCP(=O)(O)O)C(=O)O (stereo in doubt) [2-Amino-4-phosphonobutyric acid]
Activity Type (feline CaSR (f:CaSR) [1]; [5]): Agonist

N[C@@H](CCC(=O)O)C(=O)O [L-Glutamic acid]
Activity Type (feline CaSR (f:CaSR) [1]): Agonist

C[C@H](NC(=O)CC[C@H](N)C(=O)O)C(=O)O [γ-Glu-Ala, L-gamma-Glutamyl-L-alanine]
Activity Type (feline CaSR (f:CaSR) [1]; [5]): Agonist

Poly-L-arginine
Activity Type (feline CaSR (f:CaSR) [1]): Agonist EC50 1.01 uM | EC50 (feline CaSR (f:CaSR) [1]; read-out: EC50 (Agonist)): 1.01 µM

OCC(CNC1CCCOc2cc(Cl)ccc21)Cc1ccccn1 (stereo not drawn) [3-((8-chloro-2,3,4,5-tetrahydrobenzo[b]oxepin-5-yl)amino)-2-(pyridin-2-ylmethyl)propan-1-ol]
Activity Type (feline CaSR (f:CaSR) [1]; [5]): PAM

C[C@@H](NCCCc1cccc(C(F)(F)F)c1)c1cccc2ccccc12 [Cinacalcet, reference compound]
Activity Type (feline CaSR (f:CaSR) [1]): PAM EC50 0.746 uM

CC(C)C[C@H](NC(=O)C[C@H](N)C(=O)O)C(=O)O [H-Asp(Leu-OH)—OH]
Activity Type (feline CaSR (f:CaSR) [1]; [5]): Agonist

Cc1ccc(C(C)(O)c2nc3ccccc3s2)c(C)c1 (stereo not drawn) [1-(benzo[d]thiazol-2-yl)-1-(2,4-dimethylphenyl)ethanol]
EC50 (feline CaSR (f:CaSR) [1]; [6]): 0.0511 µM | Activity Type (feline CaSR (f:CaSR) [1]; [5]): PAM

NC(CCC(=O)NC(Cc1c[nH]c2ccccc12)C(=O)O)C(=O)O [γ-D-Glu-Trp, H-gamma-D-Glu-Trp-OH]
EC50 (feline CaSR (f:CaSR) [1]; [4]): 4200 µM | Activity Type (feline CaSR (f:CaSR) [1]; [5]): Agonist

O=P(O)(O)CP(=O)(O)O [Methylenediphosphonic acid]
EC50 (feline CaSR (f:CaSR) [1]; [4]): 1290 µM | Activity Type (feline CaSR (f:CaSR) [1]; [5]): Agonist

CC(NCCC(c1ccccc1)C1CCOC(C)(C)C1)c1ccccc1 (stereo not drawn) [3-(2,2-dimethyltetrahydro-2H-pyran-4-yl)-3-phenyl-N-(1-phenylethyl)propan-1-amine]
EC50 (feline CaSR (f:CaSR) [1]; [6]): 0.988 µM | Activity Type (feline CaSR (f:CaSR) [1]; [5]): PAM

N[C@@H](CCC(=O)N[C@@H](CSCCO)C(=O)NCC(=O)O)C(=O)O [S-(2-Hydroxyethyl)glutathione]
Activity Type (feline CaSR (f:CaSR) [1]; [5]): Agonist

NCCCC[C@H](N)C(=O)O [L-Lysine]
Activity Type (feline CaSR (f:CaSR) [2]): PAM EC50 of Ca^2+ moved from 1.5 mM to 0.72 mM in presence of 10 mM L-Lysine

N[C@@H](CC(=O)NCC(=O)O)C(=O)O [H-Asp(Gly-OH)—OH]
Activity Type (feline CaSR (f:CaSR) [1]; [5]): Agonist

CC(=O)N1C=Cc2ccccc2C1CC(=O)NC(C)c1cccc(Br)c1 (stereo not drawn) [2-(2-acetyl-1,2-dihydroisoquinolin-1-yl)-N-(1-(3-bromophenyl)ethyl)acetamide]
EC50 (feline CaSR (f:CaSR) [1]; [6]): 12.1 µM | Activity Type (feline CaSR (f:CaSR) [1]; [5]): PAM

Poly-L-lysine
Activity Type (feline CaSR (f:CaSR) [1]): Agonist

COC(=O)C(NC1CCc2c(F)cccc21)c1cccc(C#N)c1 (stereo not drawn) [methyl 2-(3-cyanophenyl)-2-((4-fluoro-2,3-dihydro-1H-inden-1-yl)amino)acetate]
EC50 (feline CaSR (f:CaSR) [1]; [6]): 58.9 µM | Activity Type (feline CaSR (f:CaSR) [1]; [5]): PAM

C[Se]C[C@H](N)C(=O)O [Se-(Methyl)selenocysteine]
EC50 (feline CaSR (f:CaSR) [1]; [4]): 4470 µM | Activity Type (feline CaSR (f:CaSR) [1]; [5]): Agonist

Poly-L-ornithine
Activity Type (feline CaSR (f:CaSR) [1]): Agonist EC50 0.240 mM | EC50 (feline CaSR (f:CaSR) [1]; read-out: EC50 (Agonist)): 240 µM

CC(NCC1Cc2ccccc2O1)c1ccc2ccccc2n1 (stereo not drawn) [N-((2,3-dihydrobenzofuran-2-yl)methyl)-1-(quinolin-2-yl)ethanamine]
EC50 (feline CaSR (f:CaSR) [1]; [6]): 9.01 µM | Activity Type (feline CaSR (f:CaSR) [1]; [5]): PAM

NC(=O)CC[C@H](NC(=O)CC[C@H](N)C(=O)O)C(=O)O [H-Glu(Gln-OH)—OH]
Activity Type (feline CaSR (f:CaSR) [1]; [5]): Agonist

[Sr+2] [Strontium]
Activity Type (feline CaSR (f:CaSR) [1]; [5]): Agonist

COc1ccccc1C(CCNC(C)c1ccc(Cl)cc1)c1ccco1 (stereo not drawn) [N-(1-(4-chlorophenyl)ethyl)-3-(furan-2-yl)-3-(2-methoxyphenyl)propan-1-amine]
EC50 (feline CaSR (f:CaSR) [1]; [6]): 1.41 µM | Activity Type (feline CaSR (f:CaSR) [1]; [5]): PAM
